Data from PMC7265341, “Quantifying CDK inhibitor selectivity in live cells” (Nature Communications, 2020).
Like-named read-outs stand apart in the source and are kept apart here.

What was measured:
[1] = target: CDK19/Cyclin C (Homo sapiens, UniProt Q9BWU1); experiment: NanoBRET live-cell target engagement, NanoLuc-CDK19/Cyclin C in HEK-293; settings: read-out: Inhibition at 10µM (%), CDK19/C; experiment 2
[2] = target: CDK11B/Cyclin L2 (Homo sapiens, UniProt P21127); experiment: NanoBRET live-cell target engagement, CDK11B-NanoLuc/Cyclin L2 in HEK-293; type: binding; settings: read-out: Inhibition at 10µM (%), CDK11b/L2
[3] = target: CDK7 (Homo sapiens, UniProt P50613); experiment: NanoBRET live-cell target engagement, NanoLuc-CDK7 in HEK-293; type: binding; settings: CDK7, read-out: Inhibition at 10µM (%)
[4] = target: T1, CDK11A/Cyclin L2 (Homo sapiens, UniProt Q9UQ88); experiment: NanoBRET live-cell target engagement, CDK11A-NanoLuc/Cyclin L2 in HEK-293; type: binding; settings: read-out: Inhibition at 10µM (%), CDK11a/L2
T1 sequence (Q9UQ88 1-783): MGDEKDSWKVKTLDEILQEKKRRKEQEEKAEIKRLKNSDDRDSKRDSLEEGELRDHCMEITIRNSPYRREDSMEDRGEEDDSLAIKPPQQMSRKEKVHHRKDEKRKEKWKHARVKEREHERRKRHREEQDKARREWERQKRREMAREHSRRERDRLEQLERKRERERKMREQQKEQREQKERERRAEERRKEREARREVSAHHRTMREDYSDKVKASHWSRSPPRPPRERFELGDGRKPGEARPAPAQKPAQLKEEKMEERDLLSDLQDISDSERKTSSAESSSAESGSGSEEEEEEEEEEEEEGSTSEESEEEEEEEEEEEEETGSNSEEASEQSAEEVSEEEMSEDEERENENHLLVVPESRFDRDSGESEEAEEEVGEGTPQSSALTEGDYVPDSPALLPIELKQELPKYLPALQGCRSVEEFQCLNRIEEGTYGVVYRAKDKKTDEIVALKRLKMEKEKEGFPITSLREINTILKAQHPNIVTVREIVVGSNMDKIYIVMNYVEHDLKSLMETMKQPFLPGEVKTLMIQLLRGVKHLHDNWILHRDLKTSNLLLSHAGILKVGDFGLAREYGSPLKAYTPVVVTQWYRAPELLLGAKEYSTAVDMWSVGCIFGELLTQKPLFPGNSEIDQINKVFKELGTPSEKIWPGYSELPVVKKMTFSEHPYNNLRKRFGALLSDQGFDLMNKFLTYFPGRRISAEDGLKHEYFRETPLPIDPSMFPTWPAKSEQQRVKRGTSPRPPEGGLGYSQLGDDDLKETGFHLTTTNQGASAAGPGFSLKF

[5] = target: CDK12/Cyclin K (Homo sapiens, UniProt Q9NYV4); experiment: NanoBRET live-cell target engagement, CDK12-NanoLuc/Cyclin K in HEK-293; type: binding; settings: read-out: Inhibition at 10µM (%), CDK12/K
[6] = target: CDK2/Cyclin E1 (Homo sapiens, UniProt P24941); experiment: NanoBRET live-cell target engagement, CDK2-NanoLuc/Cyclin E1 in HEK-293; type: binding; settings: for inhibition at 10 µM: CDK2/E1, read-out: Inhibition at 10µM (%)
[7] = target: CDK9/Cyclin K (Homo sapiens, UniProt P50750); experiment: NanoBRET live-cell target engagement, NanoLuc-CDK9/Cyclin K in HEK-293; type: binding; settings: CDK9/K, read-out: Inhibition at 10µM (%)
[8] = target: CDK5/CDK5R1 (Homo sapiens, UniProt Q00535); experiment: NanoBRET live-cell target engagement, CDK5-NanoLuc/CDK5R1 in HEK-293; type: binding; settings: CDK5/CDK5R1, read-out: Inhibition at 10µM (%)
[9] = target: CDK1/Cyclin E1 (Homo sapiens, UniProt P06493); experiment: NanoBRET live-cell target engagement, CDK1-NanoLuc/Cyclin E1 in HEK-293; type: binding; settings: CDK1/E1, read-out: Inhibition at 10µM (%)
[10] = target: CDK17/Cyclin Y (Homo sapiens, UniProt Q00537); experiment: NanoBRET live-cell target engagement, CDK17-NanoLuc/Cyclin Y in HEK-293; type: binding; settings: read-out: Inhibition at 10µM (%), CDK17/Y
[11] = target: CDK13/Cyclin K (Homo sapiens, UniProt Q14004); experiment: NanoBRET live-cell target engagement, CDK13-NanoLuc/Cyclin K in HEK-293; type: binding; settings: CDK13/K, read-out: Inhibition at 10µM (%)
[12] = target: CDK3/Cyclin E1 (Homo sapiens, UniProt Q00526); experiment: NanoBRET live-cell target engagement, CDK3-NanoLuc/Cyclin E1 in HEK-293; type: binding; settings: CDK3/E1, read-out: Inhibition at 10µM (%)
[13] = target: CDK10/Cyclin L2 (Homo sapiens, UniProt Q15131); experiment: NanoBRET live-cell target engagement, CDK10-NanoLuc/Cyclin L2 in HEK-293; settings: read-out: Inhibition at 10µM (%), CDK10/L2
CDK10/Cyclin L2, sequence (Q15131 whole entry): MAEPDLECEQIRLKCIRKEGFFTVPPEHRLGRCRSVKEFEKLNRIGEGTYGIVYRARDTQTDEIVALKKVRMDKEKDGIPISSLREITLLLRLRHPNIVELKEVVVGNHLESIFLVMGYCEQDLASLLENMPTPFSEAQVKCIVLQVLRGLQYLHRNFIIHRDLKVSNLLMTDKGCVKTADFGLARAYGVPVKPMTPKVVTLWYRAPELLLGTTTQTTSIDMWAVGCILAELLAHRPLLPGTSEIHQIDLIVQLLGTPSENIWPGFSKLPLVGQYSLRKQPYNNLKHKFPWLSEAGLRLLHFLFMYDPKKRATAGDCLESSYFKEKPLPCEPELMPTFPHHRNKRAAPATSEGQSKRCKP

CDK13/Cyclin K, sequence (O75909 whole entry): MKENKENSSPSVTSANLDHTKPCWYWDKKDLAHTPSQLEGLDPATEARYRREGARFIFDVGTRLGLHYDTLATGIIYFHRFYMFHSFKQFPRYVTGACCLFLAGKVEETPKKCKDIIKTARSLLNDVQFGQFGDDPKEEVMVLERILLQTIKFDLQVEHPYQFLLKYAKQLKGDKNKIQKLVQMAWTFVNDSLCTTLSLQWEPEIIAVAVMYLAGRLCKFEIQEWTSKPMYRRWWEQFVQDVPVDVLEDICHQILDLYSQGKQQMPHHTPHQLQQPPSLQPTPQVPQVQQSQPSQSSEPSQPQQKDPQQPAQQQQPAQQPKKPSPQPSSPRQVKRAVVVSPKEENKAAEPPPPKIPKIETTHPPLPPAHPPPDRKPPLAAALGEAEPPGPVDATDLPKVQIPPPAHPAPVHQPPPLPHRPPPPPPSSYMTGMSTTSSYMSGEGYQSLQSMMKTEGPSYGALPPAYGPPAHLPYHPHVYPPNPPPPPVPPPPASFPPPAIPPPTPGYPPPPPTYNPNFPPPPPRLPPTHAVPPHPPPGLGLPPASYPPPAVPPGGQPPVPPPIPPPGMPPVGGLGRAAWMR
CDK13/Cyclin K, sequence (Q14004 other isoform, or with tags, fused parts or gaps): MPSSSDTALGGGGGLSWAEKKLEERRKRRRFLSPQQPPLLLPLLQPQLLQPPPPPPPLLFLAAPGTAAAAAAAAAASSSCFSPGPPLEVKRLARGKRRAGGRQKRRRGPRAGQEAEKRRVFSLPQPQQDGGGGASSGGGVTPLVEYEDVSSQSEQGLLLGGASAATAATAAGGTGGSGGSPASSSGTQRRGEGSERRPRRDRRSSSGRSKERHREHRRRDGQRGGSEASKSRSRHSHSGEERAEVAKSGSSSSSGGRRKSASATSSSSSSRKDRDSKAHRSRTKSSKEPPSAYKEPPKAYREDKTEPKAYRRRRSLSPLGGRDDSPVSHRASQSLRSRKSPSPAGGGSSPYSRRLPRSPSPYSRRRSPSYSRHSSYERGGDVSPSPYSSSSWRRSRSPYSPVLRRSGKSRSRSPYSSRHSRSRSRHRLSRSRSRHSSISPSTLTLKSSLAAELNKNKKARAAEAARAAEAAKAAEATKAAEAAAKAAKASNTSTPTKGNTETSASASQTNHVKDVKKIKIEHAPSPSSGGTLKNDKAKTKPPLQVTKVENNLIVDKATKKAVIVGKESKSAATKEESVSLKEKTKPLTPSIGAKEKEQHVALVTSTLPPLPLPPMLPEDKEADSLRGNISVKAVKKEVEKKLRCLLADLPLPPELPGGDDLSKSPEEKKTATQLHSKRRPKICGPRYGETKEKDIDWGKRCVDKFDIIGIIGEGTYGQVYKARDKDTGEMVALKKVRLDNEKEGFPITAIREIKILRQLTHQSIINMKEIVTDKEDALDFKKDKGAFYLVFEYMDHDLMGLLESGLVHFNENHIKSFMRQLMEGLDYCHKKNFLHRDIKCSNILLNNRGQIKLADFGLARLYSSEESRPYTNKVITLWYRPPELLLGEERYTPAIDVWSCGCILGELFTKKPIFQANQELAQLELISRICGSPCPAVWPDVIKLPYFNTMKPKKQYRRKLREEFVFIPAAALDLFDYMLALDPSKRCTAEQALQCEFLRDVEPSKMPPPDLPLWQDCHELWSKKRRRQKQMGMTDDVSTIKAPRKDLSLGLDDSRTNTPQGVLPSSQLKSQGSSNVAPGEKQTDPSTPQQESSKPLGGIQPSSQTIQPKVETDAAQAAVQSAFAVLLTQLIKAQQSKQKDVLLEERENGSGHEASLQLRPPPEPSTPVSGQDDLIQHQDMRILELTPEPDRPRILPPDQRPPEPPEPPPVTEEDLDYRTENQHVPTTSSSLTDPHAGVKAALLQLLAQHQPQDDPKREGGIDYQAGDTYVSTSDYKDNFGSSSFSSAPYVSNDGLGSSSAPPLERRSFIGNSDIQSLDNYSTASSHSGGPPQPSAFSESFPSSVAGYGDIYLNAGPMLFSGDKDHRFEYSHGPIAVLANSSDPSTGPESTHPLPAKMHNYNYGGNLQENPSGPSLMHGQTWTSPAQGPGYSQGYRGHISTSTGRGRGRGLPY
CDK12/Cyclin K, sequence (Q9NYV4 1-1481 isoform Q9NYV4-2): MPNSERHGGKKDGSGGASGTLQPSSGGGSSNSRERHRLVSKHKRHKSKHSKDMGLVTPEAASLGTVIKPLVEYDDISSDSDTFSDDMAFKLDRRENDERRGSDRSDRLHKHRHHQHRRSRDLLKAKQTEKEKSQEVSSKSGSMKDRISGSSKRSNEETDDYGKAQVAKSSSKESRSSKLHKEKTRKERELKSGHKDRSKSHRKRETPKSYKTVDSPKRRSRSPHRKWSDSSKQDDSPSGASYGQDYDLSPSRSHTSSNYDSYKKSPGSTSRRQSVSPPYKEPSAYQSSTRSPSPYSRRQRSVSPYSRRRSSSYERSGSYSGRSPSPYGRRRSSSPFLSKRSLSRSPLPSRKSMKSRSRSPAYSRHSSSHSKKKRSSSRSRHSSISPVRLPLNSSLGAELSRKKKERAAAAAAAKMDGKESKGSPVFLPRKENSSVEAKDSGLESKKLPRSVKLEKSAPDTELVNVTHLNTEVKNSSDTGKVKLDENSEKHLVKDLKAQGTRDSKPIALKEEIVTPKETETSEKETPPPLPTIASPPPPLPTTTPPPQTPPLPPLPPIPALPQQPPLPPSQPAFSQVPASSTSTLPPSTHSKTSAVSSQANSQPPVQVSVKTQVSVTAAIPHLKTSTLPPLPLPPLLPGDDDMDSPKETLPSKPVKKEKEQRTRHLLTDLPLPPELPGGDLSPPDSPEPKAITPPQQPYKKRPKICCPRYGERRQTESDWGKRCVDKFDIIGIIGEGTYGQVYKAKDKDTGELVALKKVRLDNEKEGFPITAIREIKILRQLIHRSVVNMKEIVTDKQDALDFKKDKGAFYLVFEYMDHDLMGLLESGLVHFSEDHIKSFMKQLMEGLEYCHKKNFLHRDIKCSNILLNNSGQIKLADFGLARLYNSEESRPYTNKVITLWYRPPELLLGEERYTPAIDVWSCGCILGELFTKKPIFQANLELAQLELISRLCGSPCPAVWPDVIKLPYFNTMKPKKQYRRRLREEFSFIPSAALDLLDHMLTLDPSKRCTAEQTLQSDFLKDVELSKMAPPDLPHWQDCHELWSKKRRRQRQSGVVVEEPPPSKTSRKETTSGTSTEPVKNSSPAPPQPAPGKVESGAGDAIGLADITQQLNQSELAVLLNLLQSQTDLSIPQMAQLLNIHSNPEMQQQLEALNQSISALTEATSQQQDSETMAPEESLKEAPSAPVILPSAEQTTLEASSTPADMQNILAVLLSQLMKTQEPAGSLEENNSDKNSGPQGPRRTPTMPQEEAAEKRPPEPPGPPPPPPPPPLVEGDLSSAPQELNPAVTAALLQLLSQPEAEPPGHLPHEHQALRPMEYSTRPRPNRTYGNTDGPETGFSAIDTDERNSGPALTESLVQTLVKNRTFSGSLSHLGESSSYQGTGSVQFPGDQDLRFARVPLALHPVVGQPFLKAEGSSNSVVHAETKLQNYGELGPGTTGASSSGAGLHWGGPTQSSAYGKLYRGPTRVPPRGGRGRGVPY
CDK12/Cyclin K, sequence (O75909 whole entry partner): as the sequence (O75909 whole entry) above
CDK9/Cyclin K, sequence (P50750 whole entry): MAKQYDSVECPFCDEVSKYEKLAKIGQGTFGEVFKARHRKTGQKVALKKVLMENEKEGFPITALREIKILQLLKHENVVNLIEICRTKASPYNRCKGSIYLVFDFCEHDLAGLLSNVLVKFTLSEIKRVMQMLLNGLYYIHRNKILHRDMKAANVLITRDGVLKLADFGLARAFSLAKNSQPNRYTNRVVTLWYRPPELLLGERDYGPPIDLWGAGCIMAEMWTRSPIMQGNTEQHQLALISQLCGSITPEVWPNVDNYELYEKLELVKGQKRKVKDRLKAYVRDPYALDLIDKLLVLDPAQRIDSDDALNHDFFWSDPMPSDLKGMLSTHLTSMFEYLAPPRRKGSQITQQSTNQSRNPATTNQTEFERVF
CDK9/Cyclin K, sequence (O75909 whole entry partner): as the sequence (O75909 whole entry) above
CDK5/CDK5R1, sequence (Q00535 whole entry): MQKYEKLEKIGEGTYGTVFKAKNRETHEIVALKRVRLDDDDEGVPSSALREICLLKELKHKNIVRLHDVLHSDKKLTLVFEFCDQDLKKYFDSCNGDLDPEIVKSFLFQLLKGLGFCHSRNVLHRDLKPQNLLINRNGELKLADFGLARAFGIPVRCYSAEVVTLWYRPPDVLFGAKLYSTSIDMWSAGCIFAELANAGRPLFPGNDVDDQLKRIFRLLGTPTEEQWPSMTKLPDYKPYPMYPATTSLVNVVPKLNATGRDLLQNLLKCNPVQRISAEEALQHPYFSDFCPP
CDK5/CDK5R1, sequence (Q15078 whole entry partner): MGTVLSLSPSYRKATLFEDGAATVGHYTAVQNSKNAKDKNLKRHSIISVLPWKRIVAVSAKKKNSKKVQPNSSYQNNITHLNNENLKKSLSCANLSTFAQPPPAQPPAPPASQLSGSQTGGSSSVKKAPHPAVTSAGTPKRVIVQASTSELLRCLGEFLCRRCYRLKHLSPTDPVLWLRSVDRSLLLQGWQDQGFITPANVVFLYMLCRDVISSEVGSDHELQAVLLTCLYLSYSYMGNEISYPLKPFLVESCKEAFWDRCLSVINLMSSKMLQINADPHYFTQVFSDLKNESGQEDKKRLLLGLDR

COC1CN(C(=O)c2ccc3c(N)ncc(-c4ccc(-c5cnn(C)c5)cc4)c3n2)C1 [CCT251545 analog]
inhibition at 10 µM [1]: 91.3%
inhibition at 10 µM ([2]; average): 0.563%
inhibition at 10 µM ([2]; experiment 1): 2.1%
inhibition at 10 µM ([2]; experiment 2): -1%
inhibition at 10 µM ([3]; average): 9.4%
inhibition at 10 µM ([3]; experiment 1): 11.5%
inhibition at 10 µM ([3]; experiment 2): 7.3%
inhibition at 10 µM ([4]; average): 0.8%
inhibition at 10 µM ([4]; experiment 1): -1%
inhibition at 10 µM ([4]; experiment 2): 2.6%
inhibition at 10 µM ([5]; average): 1.9%
inhibition at 10 µM ([5]; experiment 1): 5.9%
inhibition at 10 µM ([5]; experiment 2): -2.2%
inhibition at 10 µM ([6]; average): -18.6%
inhibition at 10 µM ([6]; experiment 1): -37.1%
inhibition at 10 µM ([6]; experiment 2): -0.0714%
CDK2 Occupancy (%) ([6]; LOG10([CCT251545 analog]) (LOG10(µM)) 0.045757): 0.4583%
CDK2 Occupancy (%) ([6]; LOG10([CCT251545 analog]) (LOG10(µM)) 0.522879): 13.0609%
CDK2 Occupancy (%) ([6]; LOG10([CCT251545 analog]) (LOG10(µM)) 1): 32.3087%
CDK2 Occupancy (%) ([6]; LOG10([CCT251545 analog]) (LOG10(µM)) -0.43136): 6.187%
CDK2 Occupancy (%) ([6]; LOG10([CCT251545 analog]) (LOG10(µM)) -0.90849): 0%
CDK2 Occupancy (%) ([6]; LOG10([CCT251545 analog]) (LOG10(µM)) -1.38561): 0.6874%
CDK2 Occupancy (%) ([6]; LOG10([CCT251545 analog]) (LOG10(µM)) -1.86273): 13.5192%
CDK2 Occupancy (%) ([6]; LOG10([CCT251545 analog]) (LOG10(µM)) -2.33985): 9.853%
CDK2 Occupancy (%) ([6]; LOG10([CCT251545 analog]) (LOG10(µM)) -2.81697): 9.166%
CDK2 Occupancy (%) ([6]; LOG10([CCT251545 analog]) (LOG10(µM)) -3.29409): 4.812%
CDK2 Occupancy (%) ([6]; LOG10([CCT251545 analog]) (LOG10(µM)) -3.77121): 2.291%
inhibition at 10 µM ([7]; average): 7.2%
inhibition at 10 µM ([7]; experiment 1): 6.8%
inhibition at 10 µM ([7]; experiment 2): 7.5%
inhibition at 10 µM ([8]; average): 16.2%
inhibition at 10 µM ([8]; experiment 1): 17.8%
inhibition at 10 µM ([8]; experiment 2): 14.5%
inhibition at 10 µM ([9]; average): 16.7%
inhibition at 10 µM ([9]; experiment 1): 19.7%
inhibition at 10 µM ([9]; experiment 2): 13.7%
inhibition at 10 µM ([10]; average): 11.3%
inhibition at 10 µM ([10]; experiment 1): 8.9%
inhibition at 10 µM ([10]; experiment 2): 13.7%
inhibition at 10 µM ([11]; average): 6.6%
inhibition at 10 µM ([11]; experiment 1): 6.4%
inhibition at 10 µM ([11]; experiment 2): 6.7%
inhibition at 10 µM ([12]; average): 0.5%
inhibition at 10 µM ([12]; experiment 1): 3.3%
inhibition at 10 µM ([12]; experiment 2): -2.3%
inhibition at 10 µM ([13]; average): -11.6%
inhibition at 10 µM ([13]; experiment 1): -2.4%
inhibition at 10 µM ([13]; experiment 2): -20.8%
